Results on five compounds are retold here after patent US5384417A, “Heptitols” (priority 1994, dated 1995).

As usually defined, the inhibition is the drop in the measured response relative to a control, in per cent.

Holding throughout (format): biochemical
Test [1] addresses T1, β-Xylosidase (Homo sapiens, UniProt Q9H227).
T1 construct: Human liver glycosidases were assayed; from tissue; host or cells: human liver
T1 sequence (Q9H227 1-469): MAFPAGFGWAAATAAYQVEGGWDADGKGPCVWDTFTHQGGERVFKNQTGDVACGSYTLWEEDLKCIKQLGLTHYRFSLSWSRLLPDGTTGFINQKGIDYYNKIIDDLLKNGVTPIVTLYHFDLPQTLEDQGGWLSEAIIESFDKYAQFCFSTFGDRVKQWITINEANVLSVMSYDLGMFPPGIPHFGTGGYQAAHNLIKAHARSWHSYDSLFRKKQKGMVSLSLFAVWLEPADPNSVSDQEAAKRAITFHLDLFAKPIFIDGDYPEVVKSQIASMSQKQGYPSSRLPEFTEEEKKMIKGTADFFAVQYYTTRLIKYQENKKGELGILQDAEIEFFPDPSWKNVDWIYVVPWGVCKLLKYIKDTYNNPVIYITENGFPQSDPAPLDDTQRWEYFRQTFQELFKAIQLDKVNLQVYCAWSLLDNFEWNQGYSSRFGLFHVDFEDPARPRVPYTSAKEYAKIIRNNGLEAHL
The test is described as follows: inhibition of human liver β-xylosidase. Conditions: 1 mM inhibitor; read-out: % Inhibition of Glycosidase Activity, β-Xylosidase. Here is the method: (§1) Human liver glycosidases were assayed in the absence and presence [1 mM] of each of the potential inhibitors, using the appropriate buffered 4-methylumbelliferyl glycosides as substrates, as previously described.^17 See Table I, below.

Test [2] has as its target T2, Neutral α-Mannosidase (Homo sapiens, UniProt Q9NTJ4).
T2 construct: Human liver glycosidases were assayed; from tissue; host or cells: human liver
T2 sequence (Q9NTJ4 1-1040): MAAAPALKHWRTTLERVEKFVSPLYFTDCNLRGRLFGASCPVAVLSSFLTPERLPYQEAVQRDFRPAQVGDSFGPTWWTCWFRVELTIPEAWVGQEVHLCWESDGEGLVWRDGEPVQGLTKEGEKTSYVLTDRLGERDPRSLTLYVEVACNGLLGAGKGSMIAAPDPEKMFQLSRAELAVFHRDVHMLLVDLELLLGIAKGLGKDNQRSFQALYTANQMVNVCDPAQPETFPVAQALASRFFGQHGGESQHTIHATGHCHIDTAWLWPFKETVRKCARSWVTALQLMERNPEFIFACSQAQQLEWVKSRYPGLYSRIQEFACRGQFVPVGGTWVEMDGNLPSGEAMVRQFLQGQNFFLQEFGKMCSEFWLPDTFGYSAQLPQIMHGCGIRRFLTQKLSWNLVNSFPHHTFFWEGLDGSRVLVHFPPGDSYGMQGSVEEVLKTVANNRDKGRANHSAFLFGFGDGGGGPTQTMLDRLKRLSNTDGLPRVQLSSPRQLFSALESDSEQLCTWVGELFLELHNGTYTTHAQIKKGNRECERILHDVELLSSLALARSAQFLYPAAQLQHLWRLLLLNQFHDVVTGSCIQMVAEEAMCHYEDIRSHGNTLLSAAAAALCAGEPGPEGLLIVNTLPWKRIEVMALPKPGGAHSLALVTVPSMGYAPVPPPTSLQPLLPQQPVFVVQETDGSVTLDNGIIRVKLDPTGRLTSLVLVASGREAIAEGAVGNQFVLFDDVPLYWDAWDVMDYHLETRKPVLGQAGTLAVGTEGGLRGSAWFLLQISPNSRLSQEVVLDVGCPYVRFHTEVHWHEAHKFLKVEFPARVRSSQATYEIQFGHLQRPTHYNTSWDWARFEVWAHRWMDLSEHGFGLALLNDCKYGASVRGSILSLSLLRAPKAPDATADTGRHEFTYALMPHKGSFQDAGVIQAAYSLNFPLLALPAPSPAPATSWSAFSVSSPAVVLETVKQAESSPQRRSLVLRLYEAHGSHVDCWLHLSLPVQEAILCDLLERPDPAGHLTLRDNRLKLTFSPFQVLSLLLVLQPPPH
In words: inhibition of human liver neutral α-mannosidase. As to conditions: for inhibition at 1000 µM: 1 mM inhibitor, read-out: % Inhibition of Glycosidase Activity, α-Mannosidase Neutral. Here is the method:
as §1

The subject of test [3] is α-Arabinosidase. The test is described as follows: inhibition of human liver α-arabinosidase. As to conditions: 1 mM inhibitor. The protocol:
as §1

Structures are written as SMILES.

As for `OC[C@@H](O)[C@H]1NC[C@@H](O)[C@H]1O` [DIM (3)], the inhibition at 1000 µM in test [1] worked out at 45%; in test [2], 89%. In addition, the “% Inhibition of Glycosidase Activity, α-Arabinosidase” value (“% Inhibition of Glycosidase Activity” for short) in test [3] is given as 66%.
As for `OC[C@H]1N[C@H](CO)[C@@H](O)C(O)[C@@H]1O` (stereo partly shown) [αHomoDMJ (2)], the values for the inhibition at 1000 µM in test [1] and in test [2] were 0% and 33%, respectively. Further, the “% Inhibition of Glycosidase Activity” value in test [3] worked out at 0%.
Consider `NC[C@H]1O[C@H]([C@H](O)CO)[C@H](O)[C@@H]1O` [Manhepamine (5), 1-amino-2,5-anhydro-1-deoxy-D-glycero-D-talo-heptitol], for which the values for the inhibition at 1000 µM in test [1] and in test [2] were 6% and 2%, respectively. Further, the “% Inhibition of Glycosidase Activity” value in test [3] turned out to be 0%.
Take `OC[C@@H](O)[C@H]1N[C@H](CO)[C@@H](O)[C@H]1O` [αHomoDIM (4), 2,5-dideoxy-2,5-imino-D-glycero-D-talo-heptitol]: the inhibition at 1000 µM in test [1] amounted to 21%; in test [2], 76%. In test [2] (compared with DIM (3)), the “inhibition of neutral α-mannosidase (in words)” value was “decreases the inhibition of the lysosomal and neutral enzymes”. In addition, in test [3], the “% Inhibition of Glycosidase Activity” value was 25%.
As to `OC[C@H]1NC[C@@H](O)[C@@H](O)[C@@H]1O` [DMJ (1), deoxymannojirimycin], the figures for the inhibition at 1000 µM in test [1] and in test [2] were 3% and 30%, respectively. In addition, the “% Inhibition of Glycosidase Activity” value in test [3] came to 5%.
